# Assay results as given in the NIST ThermoML archive (doi:10.1016/j.jct.2014.04.003).
# ± gives the expanded uncertainty stated by the source.
# Assay: molar enthalpy of vaporization or sublimation
# Settings: 298.15 K; Liquid; Static calorimetry
structure (smiles),measurement,value
"Cc1ccc(C)n1C [1,2,5-trimethylpyrrole]",molar enthalpy,12.1 ± 0.311 kcal/mol
